Source: patent publication US11661426B2, “Imidazole-containing inhibitors of ALK2 kinase” (BioCryst Pharmaceuticals, Inc., priority 2017, dated 2023)

Target: ALK2 (Homo sapiens (Human), UniProt Q04771)
Assay: ALK2 inhibition, LanthaScreen Eu Kinase Binding Assay (ThermoFisher Scientific / Life Technologies)
Conditions: read-out: Measured Ki (IC50) Value for Compounds: IC50
Description: Biochemical assays to measure the inhibitory effects of the compounds were performed by ThermoFisher Scientific (Life Technologies). ALK2 inhibition was tested using LanthaScreen™ Eu Kinase Binding Assay screening protocol.

Sequence of ALK2 (Q04771 21-509): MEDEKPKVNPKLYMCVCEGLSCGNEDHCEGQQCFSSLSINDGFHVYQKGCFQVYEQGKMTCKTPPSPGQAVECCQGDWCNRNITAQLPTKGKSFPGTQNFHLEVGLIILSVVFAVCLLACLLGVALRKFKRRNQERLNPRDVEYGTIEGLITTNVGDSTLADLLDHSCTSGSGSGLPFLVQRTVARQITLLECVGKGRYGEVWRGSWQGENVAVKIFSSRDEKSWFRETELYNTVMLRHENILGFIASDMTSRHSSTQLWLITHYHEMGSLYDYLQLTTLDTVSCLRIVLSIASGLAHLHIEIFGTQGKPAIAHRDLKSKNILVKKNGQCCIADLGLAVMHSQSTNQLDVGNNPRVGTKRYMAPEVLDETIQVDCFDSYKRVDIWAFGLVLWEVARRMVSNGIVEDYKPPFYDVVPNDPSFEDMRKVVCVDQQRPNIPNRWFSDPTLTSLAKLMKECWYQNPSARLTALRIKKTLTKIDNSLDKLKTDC

SMILES	IC50 [nM]
COc1cc(-n2cnc(Nc3nc(N4CCC[C@H]4C(N)=O)c4ccn(S(=O)(=O)c5ccc(C)cc5)c4n3)c2)cc(OC)c1OC [Compound 173b, (S)-1-(7-tosyl-2-((1-(3,4,5-trimethoxyphenyl)-1H-imidazol-4-yl)amino)-7H-pyrrolo[2,3-d]pyrimidin-4-yl)pyrrolidine-2-carboxamide]	> 1000
COc1cc(-n2cnc(Nc3nc(N4CCC[C@@H]4C(N)=O)c4cccn4n3)c2)cc(OC)c1OC [Compound 176b, (R)-1-(2-((1-(3,4,5-trimethoxyphenyl)-1H-imidazol-4-yl)amino)pyrrolo[2,1-f][1,2,4]triazin-4-yl)pyrrolidine-2-carboxamide]	100 to 1000
COc1cc(-n2cnc(Nc3ccc4ccccc4c3)c2)cc(OC)c1OC [Compound 178b, N-(naphthalen-2-yl)-1-(3,4,5-trimethoxyphenyl)-1H-imidazol-4-amine]	100 to 1000
COc1cc(-n2cnc(Nc3nc(N4CCCC4)nc4c3CCNC4)c2)cc(OC)c1OC [Compound 184b, 2-(pyrrolidin-1-yl)-N-(1-(3,4,5-trimethoxyphenyl)-1H-imidazol-4-yl)-5,6,7,8-tetrahydropyrido[3,4-d]pyrimidin-4-amine]	< 100
COc1cc(-n2cnc(Nc3nc(N4CCC[C@H]4C(N)=O)nc4c3CCN(C(=O)OC(C)(C)C)C4)c2)cc(OC)c1OC [Compound 185a, (S)-tert-butyl 2-(2-carbamoylpyrrolidin-1-yl)-4-((1-(3,4,5-trimethoxyphenyl)-1H-imidazol-4-yl)amino)-5,6-dihydropyrido[3,4-d]pyrimidine-7(8H)-carboxylate]	< 100
COc1cc(-n2cnc(Nc3nc(N4CCC[C@H]4C(N)=O)nc4c3CCNC4)c2)cc(OC)c1OC [Compound 185b, (S)-1-(4-((1-(3,4,5-trimethoxyphenyl)-1H-imidazol-4-yl)amino)-5,6,7,8-tetrahydropyrido[3,4-d]pyrimidin-2-yl)pyrrolidine-2-carboxamide]	< 100
COc1cc(-n2cnc(Nc3nc(N4CCCC4)nc4ncccc34)c2)cc(OC)c1OC [Compound 186a, 2-(pyrrolidin-1-yl)-N-(1-(3,4,5-trimethoxyphenyl)-1H-imidazol-4-yl)pyrido[2,3-d]pyrimidin-4-amine]	< 100
COc1cc(-n2cnc(Nc3ncnn4cccc34)c2)cc(OC)c1OC [Compound 187b, N-(1-(3,4,5-trimethoxyphenyl)-1H-imidazol-4-yl)pyrrolo[2,1-f][1,2,4]triazin-4-amine]	< 100
COc1cc(-n2cnc(Nc3nc(N4CCCC4)nc4cccnc34)c2)cc(OC)c1OC [Compound 188a, 2-(pyrrolidin-1-yl)-N-(1-(3,4,5-trimethoxyphenyl)-1H-imidazol-4-yl)pyrido[3,2-d]pyrimidin-4-amine]	< 100
COc1cc(-n2cnc(Nc3nc(N4CCC[C@H]4C(N)=O)nc4ccsc34)c2)cc(OC)c1OC [Compound 189a, (S)-1-(4-((1-(3,4,5-trimethoxyphenyl)-1H-imidazol-4-yl)amino)thieno[3,2-d]pyrimidin-2-yl)pyrrolidine-2-carboxamide]	< 100
COc1cc(-n2cnc(Nc3nc(N4CCC[C@H]4C(N)=O)nc4ccoc34)c2)cc(OC)c1OC [Compound 190a, (S)-1-(4-((1-(3,4,5-trimethoxyphenyl)-1H-imidazol-4-yl)amino)furo[3,2-d]pyrimidin-2-yl)pyrrolidine-2-carboxamide]	< 100
COc1cc(-n2cnc(Nc3nc(N4CCC[C@H]4C(N)=O)c4c(ccn4S(=O)(=O)c4ccc(C)cc4)n3)c2)cc(OC)c1OC [Compound 191b, (S)-1-(5-tosyl-2-((1-(3,4,5-trimethoxyphenyl)-1H-imidazol-4-yl)amino)-5H-pyrrolo[3,2-d]pyrimidin-4-yl)pyrrolidine-2-carboxamide]	< 100
COc1cc(-n2cnc(Nc3nc(N4CCC[C@H]4C(N)=O)c4[nH]ccc4n3)c2)cc(OC)c1OC [Compound 191c, (S)-1-(2-((1-(3,4,5-trimethoxyphenyl)-1H-imidazol-4-yl)amino)-5H-pyrrolo[3,2-d]pyrimidin-4-yl)pyrrolidine-2-carboxamide]	< 100
COc1cc(-n2cnc(Nc3nc(N4CCCC4)c4cccnc4n3)c2)cc(OC)c1OC [Compound 192b, 4-(pyrrolidin-1-yl)-N-(1-(3,4,5-trimethoxyphenyl)-1H-imidazol-4-yl)pyrido[2,3-d]pyrimidin-2-amine]	< 100
COc1cc(-n2cnc(Nc3nc4c(c(N5CCC[C@H]5C(N)=O)n3)CNCC4)c2)cc(OC)c1OC [Compound 193c, (S)-1-(2-((1-(3,4,5-trimethoxyphenyl)-1H-imidazol-4-yl)amino)-5,6,7,8-tetrahydropyrido[4,3-d]pyrimidin-4-yl)pyrrolidine-2-carboxamide]	< 100
COc1cc(-n2cnc(Nc3nc4c(c(N5CCC[C@H]5C(N)=O)n3)CCNC4)c2)cc(OC)c1OC [Compound 194c, (S)-1-(2-((1-(3,4,5-trimethoxyphenyl)-1H-imidazol-4-yl)amino)-5,6,7,8-tetrahydropyrido[3,4-d]pyrimidin-4-yl)pyrrolidine-2-carboxamide]	< 100
COc1cc(-n2cnc(Nc3cc4ccccc4cn3)c2)cc(OC)c1OC [Compound 195b, N-(1-(3,4,5-trimethoxyphenyl)-1H-imidazol-4-yl)isoquinolin-3-amine]	< 100
COc1cc(-n2cnc(Nc3nc(N4CCC[C@H]4C(N)=O)c4ncsc4n3)c2)cc(OC)c1OC [Compound 196b, (S)-1-(5-((1-(3,4,5-trimethoxyphenyl)-1H-imidazol-4-yl)amino)thiazolo[5,4-d]pyrimidin-7-yl)pyrrolidine-2-carboxamide]	< 100

More lines, now with the values ahead:

IC50 [nM]	SMILES
< 100	COc1cc(-n2cnc(Nc3nc(N4CCC[C@H]4C(N)=O)c4cc[nH]c4n3)c2)cc(OC)c1OC [Compound 173c, (S)-1-(2-((1-(3,4,5-trimethoxyphenyl)-1H-imidazol-4-yl)amino)-7H-pyrrolo[2,3-d]pyrimidin-4-yl)pyrrolidine-2-carboxamide]
< 100	COc1cc(-n2cnc(Nc3nc(N4CCC[C@H]4CO)c4cccnc4n3)c2)cc(OC)c1OC [Compound 174b, (S)-(1-(2-((1-(3,4,5-trimethoxyphenyl)-1H-imidazol-4-yl)amino)pyrido[2,3-d]pyrimidin-4-yl)pyrrolidin-2-yl)methanol]
< 100	COc1cc(-n2cnc(Nc3nc(N4CCC[C@H]4CO)c4ncccc4n3)c2)cc(OC)c1OC [Compound 175b, (S)-(1-(2-((1-(3,4,5-trimethoxyphenyl)-1H-imidazol-4-yl)amino)pyrido[3,2-d]pyrimidin-4-yl)pyrrolidin-2-yl)methanol]
< 100	COc1cc(-n2cnc(Nc3nc4c(c(N5CCC[C@H]5CO)n3)CN(Cc3ccccc3)CC4)c2)cc(OC)c1OC [Compound 177b, (S)-(1-(6-benzyl-2-((1-(3,4,5-trimethoxyphenyl)-1H-imidazol-4-yl)amino)-5,6,7,8-tetrahydropyrido[4,3-d]pyrimidin-4-yl)pyrrolidin-2-yl)methanol]
< 100	COc1cc(-n2cnc(Nc3ccc4ccccc4n3)c2)cc(OC)c1OC [Compound 179b, N-(1-(3,4,5-trimethoxyphenyl)-1H-imidazol-4-yl)quinolin-2-amine]
< 100	COc1cc(-n2cnc(Nc3nc(N4CCC[C@H]4CO)c4c(ccn4S(=O)(=O)c4ccc(C)cc4)n3)c2)cc(OC)c1OC [Compound 180b, (S)-(1-(5-tosyl-2-((1-(3,4,5-trimethoxyphenyl)-1H-imidazol-4-yl)amino)-5H-pyrrolo[3,2-d]pyrimidin-4-yl)pyrrolidin-2-yl)methanol]
< 100	COc1cc(-n2cnc(Nc3nc4c(c(N5CCC[C@H]5CO)n3)CN(C(=O)OC(C)(C)C)CC4)c2)cc(OC)c1OC [Compound 181c, (S)-tert-butyl 4-(2-(hydroxymethyl)pyrrolidin-1-yl)-2-((1-(3,4,5-trimethoxyphenyl)-1H-imidazol-4-yl)amino)-7,8-dihydropyrido[4,3-d]pyrimidine-6(5H)-carboxylate]
< 100	COc1cc(-n2cnc(Nc3nc4c(c(N5CCC[C@H]5CO)n3)CNCC4)c2)cc(OC)c1OC [Compound 181d, (S)-(1-(2-((1-(3,4,5-trimethoxyphenyl)-1H-imidazol-4-yl)amino)-5,6,7,8-tetrahydropyrido[4,3-d]pyrimidin-4-yl)pyrrolidin-2-yl)methanol]
< 100	COc1cc(-n2cnc(Nc3nc4c(c(N5CCC[C@H]5CO)n3)CCN(C(=O)OC(C)(C)C)C4)c2)cc(OC)c1OC [Compound 182c, (S)-tert-butyl 4-(2-(hydroxymethyl)pyrrolidin-1-yl)-2-((1-(3,4,5-trimethoxyphenyl)-1H-imidazol-4-yl)amino)-5,6-dihydropyrido[3,4-d]pyrimidine-7(8H)-carboxylate]
< 100	COc1cc(-n2cnc(Nc3nc4c(c(N5CCC[C@H]5CO)n3)CCNC4)c2)cc(OC)c1OC [Compound 182d, (S)-(1-(2-((1-(3,4,5-trimethoxyphenyl)-1H-imidazol-4-yl)amino)-5,6,7,8-tetrahydropyrido[3,4-d]pyrimidin-4-yl)pyrrolidin-2-yl)methanol]
< 100	COc1cc(-n2cnc(Nc3nc(N4CCC[C@H]4CO)nc4c3CCN(C(=O)OC(C)(C)C)C4)c2)cc(OC)c1OC [Compound 183b, (S)-tert-butyl 2-(2-(hydroxymethyl)pyrrolidin-1-yl)-4-((1-(3,4,5-trimethoxyphenyl)-1H-imidazol-4-yl)amino)-5,6-dihydropyrido[3,4-d]pyrimidine-7(8H)-carboxylate]
< 100	COc1cc(-n2cnc(Nc3nc(N4CCC[C@H]4CO)nc4c3CCNC4)c2)cc(OC)c1OC [Compound 183c, (S)-(1-(4-((1-(3,4,5-trimethoxyphenyl)-1H-imidazol-4-yl)amino)-5,6,7,8-tetrahydropyrido[3,4-d]pyrimidin-2-yl)pyrrolidin-2-yl)methanol]
< 100	COc1cc(-n2cnc(Nc3nc(N4CCCC4)nc4c3CCN(C(=O)OC(C)(C)C)C4)c2)cc(OC)c1OC [Compound 184a, tert-butyl 2-(pyrrolidin-1-yl)-4-((1-(3,4,5-trimethoxyphenyl)-1H-imidazol-4-yl)amino)-5,6-dihydropyrido[3,4-d]pyrimidine-7(8H)-carboxylate]
